Data from patent US8952024B2, “Herbicidal pyrimidone derivatives” (E I du Pont de Nemours and Company, priority 2009, dated 2015).

Legend:
Type in all cases: in vivo
[1] = tested on: large crabgrass (Digitaria sanguinalis); experiment: Test A pre-/postemergence plant response
Procedure, shortened: (§1)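 Greenhouse trial, ~10 days. Soil (loam/sand) sprayed preemergence after seeding; emerged plants (1–2 leaf, 2–10 cm) sprayed postemergence in parallel. Response = visual injury vs untreated control, 0–100.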

[2] = tested on: morningglory (Ipomoea spp.); experiment: Test A pre-/postemergence plant response
Procedure, shortened: as §1

[3] = tested on: barnyardgrass (Echinochloa crus-galli); experiment: Test A pre-/postemergence plant response
Procedure, shortened: as §1

[4] = tested on: velvetleaf (Abutilon theophrasti); experiment: Test A pre-/postemergence plant response
Procedure, shortened: as §1

[5] = tested on: pigweed (Amaranthus retroflexus); experiment: Test A pre-/postemergence plant response
Procedure, shortened: as §1

[6] = tested on: wheat (Triticum aestivum); experiment: Test A pre-/postemergence plant response
Procedure, shortened: as §1

corn (Zea mays) = experiment: Test A pre-/postemergence plant response
Procedure, shortened: as §1

[7] = tested on: giant foxtail (Setaria faberii); experiment: Test A pre-/postemergence plant response
Procedure, shortened: as §1

[8] = tested on: barnyardgrass (Echinochloa crus-galli); experiment: Test B flooded paddy test; settings: for Plant response rating, Barnyardgrass: Flood (flooded paddy test), 13 to 15 days
Procedure, shortened: (§2)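 Seedlings reaching 2 leaves are flooded 3 cm deep; test material is delivered to that water, which stays at the same depth. Plants remain in a greenhouse 13–15 days and are then scored by eye versus controls from 0 to 100.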

[9] = tested on: ducksalad (Heteranthera limosa); experiment: Test B flooded paddy test; settings: for Plant response rating, Ducksalad: Flood (flooded paddy test), 13 to 15 days
Procedure, shortened: as §2

[10] = tested on: umbrella sedge (Cyperus difformis); experiment: Test B flooded paddy test; settings: for Plant response rating, Sedge, Umbrella: Flood (flooded paddy test), 13 to 15 days
Procedure, shortened: as §2

rice (Oryza sativa) = experiment: Test B flooded paddy test; settings: for Plant response rating, Rice: Flood (flooded paddy test), 13 to 15 days
Procedure, shortened: as §2

[11] = Postemergence, 125 g ai/ha, 0 to 100 scale where 0 is no effect and 100 is complete control
[12] = Postemergence, 500 g ai/ha, 0 to 100 scale, 0 = no effect, 100 = complete control, approx. ten days
[13] = Preemergence, 125 g ai/ha, 0 to 100 scale, 0 = no effect, 100 = complete control
[14] = Preemergence, 500 g ai/ha, visual injury, 0 to 100 scale (0 no effect, 100 complete control), approx. ten days
[15] = Preemergence, 500 g ai/ha, 0 to 100 scale, 0 = no effect, 100 = complete control
[16] = 250 g ai/ha, flooded paddy test, visual rating on 0 to 100 scale (0 no effect, 100 complete control) after 13 to 15 days
[17] = 62 g ai/ha, scale of 0 to 100 where 0 is no effect and 100 is complete control
[18] = 125 g ai/ha, scale 0 to 100, 0 is no effect, 100 is complete control
[19] = Flood, 31 g ai/ha, scale 0 to 100 (0 no effect, 100 complete control)

CCCCn1c(-c2cccc(Cl)c2)ncc(C(=O)C2=C(O)CCCC2=O)c1=O [Compound 146]
80: Plant response rating, Crabgrass, Large [1, 11] | Plant response rating, Ducksalad [9, 18] | Plant response rating, Sedge, Umbrella [10, 18]
40: Plant response rating, Wheat [6, 15]
0: Plant response rating, Wheat [6, 13] | Plant response rating, Corn (corn (Zea mays); [13]) | Plant response rating, Barnyardgrass [8, 17] | Plant response rating, Barnyardgrass [8, 18] | Barnyardgrass plant response rating [8, 19] | Ducksalad plant response rating [9, 19] | Sedge, Umbrella plant response rating [10, 19] | Plant response rating, Rice (rice (Oryza sativa); [17]) | Plant response rating, Rice (rice (Oryza sativa); [18]) | Rice plant response rating (rice (Oryza sativa); [19])
100: Plant response rating, Crabgrass, Large [1, 14] | Plant response rating, Barnyardgrass [3, 11] | Plant response rating, Barnyardgrass [3, 12] | Plant response rating, Barnyardgrass [3, 14] | Plant response rating, Velvetleaf [4, 11] | Plant response rating, Velvetleaf [4, 12] | Plant response rating, Velvetleaf [4, 15] | Plant response rating, Pigweed [5, 11] | Plant response rating, Pigweed [5, 12] | Plant response rating, Pigweed [5, 14] | Plant response rating, Flood, Ducksalad [9, 16]
50: Plant response rating, Wheat [6, 12] | Plant response rating, Sedge, Umbrella [10, 17]
60: Plant response rating, Crabgrass, Large [1, 13] | Plant response rating, Barnyardgrass [3, 13] | Plant response rating, Ducksalad [9, 17]
10: Plant response rating, Morningglory [2, 13]
90: Plant response rating, Crabgrass, Large [1, 12] | Plant response rating, Morningglory [2, 11] | Plant response rating, Morningglory [2, 12] | Plant response rating, Foxtail, Giant [7, 12] | Plant response rating, Foxtail, Giant [7, 14] | Plant response rating, Flood, Sedge, Umbrella [10, 16]
70: Plant response rating, Velvetleaf [4, 13] | Plant response rating, Pigweed [5, 13] | Plant response rating, Foxtail, Giant [7, 11]
20: Plant response rating, Wheat [6, 11] | Plant response rating, Corn (corn (Zea mays); [11])
35: Plant response rating, Flood, Rice (rice (Oryza sativa); [16])
30: Plant response rating, Corn (corn (Zea mays); [12]) | Plant response rating, Corn (corn (Zea mays); [14]) | Plant response rating, Foxtail, Giant [7, 13] | Plant response rating, Flood, Barnyardgrass [8, 16]
